{"source": "patent US8163748B2", "about": "“s-Triazine compounds, pharmaceutical compositions and method of using the same” (New York University, priority 2007, dated 2012)"}
{"tested_on": "Bacillus subtilis (ATCC 6633)", "assay": "broth microdilution antibacterial testing", "type": "cell-based", "conditions": "Bacillus subtilis, ATCC6633", "units": {"MIC50": "µM"}}
{"compound": "CCCCN(CCCC)CCCNc1nc(NC2CCC2)nc(NC23CC4CC(CC(C4)C2)C3)n1", "note": "[A2 (Library 5)]", "MIC50": 7.9}
{"compound": "CCCCN(CCCC)CCCNc1nc(NC2CCCCCCCCCCC2)nc(NC23CC4CC(CC(C4)C2)C3)n1", "note": "[A5 (Library 5)]", "MIC50": 15.9}
{"compound": "CCCCN(CCCC)CCCNc1nc(NC2CC3CCC2C3)nc(NC23CC4CC(CC(C4)C2)C3)n1", "note": "(stereo not drawn) [A6 (Library 5)]", "MIC50": 7.6}
{"compound": "CCCCN(CCCC)CCCNc1nc(NC23CC4CC(CC(C4)C2)C3)nc(NC23CC4CC(CC(C4)C2)C3)n1", "note": "[A8 (Library 5)]", "MIC50": 39}
{"compound": "CCCCN(CCCC)CCCNc1nc(NC23CC4CC(CC(C4)C2)C3)nc(N(CCC)CC2CC2)n1", "note": "[A10 (Library 5)]", "MIC50": 5}
{"compound": "CCN(CC)CCCNc1nc(NCc2ccc3c(c2)OCO3)nc(NC23CC4CC(CC(C4)C2)C3)n1", "note": "[C4 (Library 5)]", "MIC50": 3.5}
{"compound": "CCCCN(CCCC)CCCNc1nc(NC2CC2)nc(NC23CC4CC(CC(C4)C2)C3)n1", "note": "[Compound A1]", "MIC50": 16.4}
{"compound": "CCCCN(CCCC)CCCNc1nc(NC23CC4CC(CC(C4)C2)C3)nc(N(CCCC)CCCC)n1", "note": "[Compound A9]", "MIC50": 4.4}
{"compound": "CCN(CC)CCCNc1nc(NCc2ccccc2)nc(NC23CC4CC(CC(C4)C2)C3)n1", "note": "[Compound C1]", "MIC50": 10.6}
{"compound": "CN(C)CCNc1nc(NC2CCCCCC2)nc(NC23CC4CC(CC(C4)C2)C3)n1", "note": "[b9 (Library 5)]", "MIC50": 7}
{"compound": "CCN(CC)CCNc1nc(NC2CCCCCC2)nc(NC23CC4CC(CC(C4)C2)C3)n1", "note": "[c9 (Library 5)]", "MIC50": 5.6}
{"compound": "CN(C)CCCNc1nc(NC2CCCCCC2)nc(NC23CC4CC(CC(C4)C2)C3)n1", "note": "[d9 (Library 5)]", "MIC50": 5.7}
{"compound": "NCCNc1nc(NC2CCCCCC2)nc(NC23CC4CC(CC(C4)C2)C3)n1", "note": "[e9 (Library 5)]", "MIC50": 5.9}
{"compound": "NCCCNc1nc(NC2CCCCCC2)nc(NC23CC4CC(CC(C4)C2)C3)n1", "note": "[f9 (Library 5)]", "MIC50": 4.7}
{"compound": "CN1CCCC1CCNc1nc(NC2CCCCCC2)nc(NC23CC4CC(CC(C4)C2)C3)n1", "note": "(stereo not drawn) [g9 (Library 5)]", "MIC50": 5.9}
{"tested_on": "Bacillus subtilis (ATCC 6633)", "assay": "broth microdilution antibacterial testing", "type": "cell-based", "conditions": "library 5; ring size 12; B. subtilis", "units": {"activity decrease comparing to ring size 7 or 8 compounds": "fold"}}
{"compound": "CCCCN(CCCC)CCCNc1nc(NC2CCCCCCCCCCC2)nc(NC23CC4CC(CC(C4)C2)C3)n1", "note": "[A5 (Library 5)]", "activity decrease comparing to ring size 7 or 8 compounds": "~8"}
{"tested_on": "Bacillus subtilis (ATCC 6633)", "assay": "broth microdilution antibacterial testing", "type": "cell-based", "conditions": "library 5 compound used as control in dye leakage"}
{"compound": "CN(C)c1nc(NC2CCCCCC2)nc(NC23CC4CC(CC(C4)C2)C3)n1", "note": "[h9 (Library 5)]", "antimicrobial activity (in words)": "little antimicrobial activity"}
{"tested_on": "not listed separately", "assay": "calcein dye leakage", "type": "biochemical", "conditions": "ampicillin 70 μM", "text": "FIG. 1 graphically depicts the results of the measurement of the ability of a triazine compound of the invention to induce leakage of calcein, entrapped within the interior of large unilamellar vesicles of model membrane POPG. The extent of leakage of encapsulated calcein was detected by its fluorescence at 515 nm, with 100% leakage calibrated by addition of 0.2% Triton X-100.\nThe method of preparation of dye-encapsulated vesicles has been reported in detail. Lasch, V.; Weissig, M. Brandl in Liposomes: a Practical Approach Eds.: Taylor, K. M. G.; Craig, D.Q.M. Oxford University Press, Oxford, 2003; pp. 10-12. The results are graphically presented in FIG. 1, which presents the results of calcein leakage induced by 1% Triton, C2 (50 μM), h9 (90 μM) and ampicillin (70 μM). The fraction of leakage was calculated from the fluorescence intensity at 515 nm, with 100% leakage calibrated by addition of 1% Triton X-100."}
{"compound": "CC1(C)S[C@@H]2[C@H](NC(=O)[C@H](N)c3ccccc3)C(=O)N2[C@H]1C(=O)O", "note": "[ampicillin]", "calcein dye leakage (in words)": "neither ampicillin nor compound C2 caused dye leakage"}
